From patent EP4700018A1, “NAV1.8 INHIBITORS, PREPARATION METHOD THEREFOR AND USE THEREOF” (Shanghai Institute of Materia Medica, Chinese Academy of …, priority 2023, dated 2024) come the findings set out here.

In series [1] the target is human Nav1.8 sodium channel (Homo sapiens, UniProt Q9Y5Y9). Briefly: Blocking activity on sodium channel 1.8 (Nav1.8), whole-cell manual patch clamp. In kind it is cell-based. Particulars: for inhibition at 0.001 µM: read-out: inhibition Percent @1 nM, 1 nM compound.
Sequence of human Nav1.8 sodium channel (Q9Y5Y9 whole entry): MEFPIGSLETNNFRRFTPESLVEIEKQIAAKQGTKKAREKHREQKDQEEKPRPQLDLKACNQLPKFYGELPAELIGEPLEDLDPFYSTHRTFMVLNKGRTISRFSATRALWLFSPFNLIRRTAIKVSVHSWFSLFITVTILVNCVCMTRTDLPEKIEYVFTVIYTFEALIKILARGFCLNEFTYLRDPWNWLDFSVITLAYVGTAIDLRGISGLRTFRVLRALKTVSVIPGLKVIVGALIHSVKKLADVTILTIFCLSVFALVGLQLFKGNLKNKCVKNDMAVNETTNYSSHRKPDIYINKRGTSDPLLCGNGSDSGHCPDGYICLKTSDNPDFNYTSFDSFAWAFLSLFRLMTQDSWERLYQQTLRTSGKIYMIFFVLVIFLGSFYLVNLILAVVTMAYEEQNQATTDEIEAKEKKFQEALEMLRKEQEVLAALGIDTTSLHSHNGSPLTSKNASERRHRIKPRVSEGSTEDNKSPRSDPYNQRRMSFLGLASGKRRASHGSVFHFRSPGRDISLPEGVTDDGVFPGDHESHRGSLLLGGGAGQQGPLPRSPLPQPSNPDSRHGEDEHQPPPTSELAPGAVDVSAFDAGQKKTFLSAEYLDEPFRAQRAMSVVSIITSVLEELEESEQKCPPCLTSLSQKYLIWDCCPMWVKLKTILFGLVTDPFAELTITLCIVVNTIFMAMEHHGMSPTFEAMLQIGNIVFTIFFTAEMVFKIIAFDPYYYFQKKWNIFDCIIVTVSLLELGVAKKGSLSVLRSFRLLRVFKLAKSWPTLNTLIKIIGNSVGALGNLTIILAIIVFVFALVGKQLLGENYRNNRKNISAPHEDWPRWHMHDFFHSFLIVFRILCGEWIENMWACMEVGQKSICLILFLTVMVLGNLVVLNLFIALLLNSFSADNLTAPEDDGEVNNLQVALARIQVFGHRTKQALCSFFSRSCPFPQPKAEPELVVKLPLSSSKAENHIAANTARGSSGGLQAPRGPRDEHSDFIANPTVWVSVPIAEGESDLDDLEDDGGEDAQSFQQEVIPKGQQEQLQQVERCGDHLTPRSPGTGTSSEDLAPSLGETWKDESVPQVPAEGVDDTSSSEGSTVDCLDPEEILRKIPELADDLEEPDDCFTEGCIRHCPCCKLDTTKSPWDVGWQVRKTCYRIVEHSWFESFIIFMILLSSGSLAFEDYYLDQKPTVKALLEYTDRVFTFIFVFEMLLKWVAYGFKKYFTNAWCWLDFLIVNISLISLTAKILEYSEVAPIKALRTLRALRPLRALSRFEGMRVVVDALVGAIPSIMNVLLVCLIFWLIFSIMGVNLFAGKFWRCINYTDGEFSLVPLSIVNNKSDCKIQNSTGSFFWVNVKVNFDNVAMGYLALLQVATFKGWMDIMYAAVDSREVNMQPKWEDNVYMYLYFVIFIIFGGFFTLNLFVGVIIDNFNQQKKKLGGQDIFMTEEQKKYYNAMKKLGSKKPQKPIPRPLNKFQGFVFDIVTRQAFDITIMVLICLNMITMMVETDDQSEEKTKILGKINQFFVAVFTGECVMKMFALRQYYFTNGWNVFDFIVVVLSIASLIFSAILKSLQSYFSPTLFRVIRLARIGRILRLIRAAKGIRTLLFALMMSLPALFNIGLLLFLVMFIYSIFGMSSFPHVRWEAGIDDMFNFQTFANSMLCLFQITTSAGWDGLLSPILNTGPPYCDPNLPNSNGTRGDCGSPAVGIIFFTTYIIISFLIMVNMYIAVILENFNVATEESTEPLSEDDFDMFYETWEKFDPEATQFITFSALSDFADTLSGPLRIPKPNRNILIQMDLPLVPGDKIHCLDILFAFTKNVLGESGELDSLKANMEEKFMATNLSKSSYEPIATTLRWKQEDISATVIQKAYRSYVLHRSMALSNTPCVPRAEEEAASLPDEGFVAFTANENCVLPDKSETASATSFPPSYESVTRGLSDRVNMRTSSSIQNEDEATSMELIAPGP
A short description of series [2]: In vivo pharmacokinetics in rats, single intravenous injection or oral gavage. Particulars: male, SD, plasma, Rat; for Vd: read-out: Vss. How it is done: The in vivo pharmacokinetics in rats were evaluated via a single intravenous injection or oral gavage administration in this test example. • 1. Test Methods and Conditions: Male SD rats were fasted overnight and administered a single intravenous dose of 2 mg/kg or 1 mg/kg of the test compound (solvent for Intravenous administration was 5% DMSO/10% Solutol® HS 15/10% EtOH/75% saline, with a dosing volume of 5 mL/kg) and an oral gavage dose of 10 mg/kg or 5 mg/kg of the test compound (solvent for administration was 0.5% CMC-Na, with a dosing volume of 10 mL/kg), respectively. • 2. Sampling Information: Blood samples (0.2 mL) were collected from the retroorbital venous plexus at the designated time points: 0.25, 0.5, 1.0, 2.0, 3.0, 4.0, 6.0, 8.0, and 24 hours before and after dosing (a 5 min sampling point was added for the intravenous administration group), respectively. The samples were placed in EDTA-K2 tubes and centrifuged at 11,000 rpm for 5 minutes. Plasma was separated and frozen at -20°C. • 3. Assay Information: LC/MS/MS was used to determine the concentration of the parent drug in rat/mouse plasma following intravenous and oral gavage administration of the test compound. Pharmacokinetic parameters in rat/mouse plasma were calculated for both administration routes, and the bioavailability of each compound in rats was also calculated. Table 5: Intravenous Pharmacokinetic Information of Representative Compounds

The mark [3] stands for this setting: intravenous, single dose 2 mg/kg or 1 mg/kg (figure not given).

For `CC(C)c1nc(N2CCCC(F)(F)CC2)c(C(=O)Nc2ccc(F)c(C(N)=NO)c2)cc1Cl` [Compound I-24, 5-chloro-2-(4,4-difluoroazepan-1-yl)-N-(4-fluoro-3-(N'-hydroxyamidino)phenyl)-6-isop ropylnicotinamide], in series [1], the inhibition at 0.001 µM was determined as 56%. Moreover, in series [2] (setting [3]), the area under the curve AUC(0-t) turned out to be 1260 ng·h/mL, the clearance came out at 12.8 mL/min/kg, the half-life is 2 h and the Vd worked out at 1.38 L/kg. For the same compound, in series [2] (oral gavage, 5mg/kg), the AUC(0-t) amounted to 1950 ng·h/mL, the concentration peaked (Cmax) at 244 ng/mL, the time of peak concentration (Tmax) worked out at 2 h and the half-life was 2.73 h. The bioavailability in series [2] (oral gavage, 5mg/kg) worked out at 30.9%.

`Cc1nc(N2CCCC(F)(F)CC2)c(C(=O)Nc2ccc(F)c(C(N)=NO)c2)cc1Cl` [Compound I-1, 5-chloro-2-(4,4-difluoroazepan-1-yl)-N-(4-fluoro-3-(N'-hydroxyamidino)phenyl)-6-met hylnicotinamide]: the inhibition at 0.001 µM in series [1] was found to be 71%. In series [2] (setting [3]), the area under the curve AUC(0-t) was 1290 ng·h/mL, the clearance worked out at 29.6 mL/min/kg, the half-life is 0.723 h and the Vd worked out at 0.638 L/kg. For the same compound, in series [2] (oral gavage, 10mg/kg), the AUC(0-t) stood at 546 ng·h/mL, the Cmax turned out to be 433 ng/mL, the time of peak concentration (Tmax) is 0.5 h and the half-life was 1.49 h. In series [2] (oral gavage, 10mg/kg), this compound showed a bioavailability of 8.7%.

For `COc1c([C@H]2[C@H](C(=O)Nc3ccnc(C(N)=O)c3)O[C@@](C)(C(F)(F)F)[C@H]2C)ccc(F)c1F` [VX-548, reference compound], in series [1], the IC50 came to 0.34 ± 0.04 nM. For the same compound, in series [2] (setting [3]), the AUC(0-t) worked out at 804 ng·h/mL, the clearance amounted to 20.7 mL/min/kg, the half-life was 0.67 h and the Vd stood at 0.92 L/kg. Besides, in series [2] (oral gavage, 5mg/kg), the AUC(0-t) is 518 ng·h/mL, the highest concentration (Cmax) was 157 ng/mL, the Tmax was determined as 0.5 h and the half-life was 2.68 h. In series [2] (oral gavage, 5mg/kg), this compound showed a bioavailability of 14%.

`NC(=NO)c1cc(NC(=O)c2cc(Cl)c(C(F)(F)F)cc2N2CCCC(F)(F)CC2)ccc1F` [Compound I-33, 5-chloro-2-(4,4-difluoroazepan-1-yl)-N-(4-fluoro-3-(N'-hydroxyamidino)phenyl)-4-(trifluoromethyl)benzamide]: the inhibition at 0.001 µM in series [1] turned out to be 86%. Further, in series [2] (setting [3]), the AUC(0-t) was found to be 2270 ng·h/mL, the clearance worked out at 7.44 mL/min/kg, the half-life was 2.67 h and the Vd amounted to 1.16 L/kg. In series [2] (oral gavage, 5mg/kg), the area under the curve AUC(0-t) came out at 8640 ng·h/mL, the Cmax is 623 ng/mL, the Tmax is 6 h and the half-life is 5.12 h. In series [2] (oral gavage, 5mg/kg), the bioavailability is 38.9%.

In the case of `NC(=NO)c1cc(NC(=O)c2cc(Cl)c(C(F)(F)F)nc2N2CCCC(F)(F)CC2)ccc1F` [Compound I-36, 5-chloro-2-(4,4-difluoroazepan-1-yl)-N-(4-fluoro-3-(N'-hydroxyamidino)phenyl)-6-(trifluoromethyl)nicotinamide], the inhibition at 0.001 µM in series [1] came out at 50%. In series [2] (setting [3]), the area under the curve AUC(0-t) worked out at 4440 ng·h/mL, the clearance worked out at 3.91 mL/min/kg, the half-life was 3.28 h and the Vd is 0.823 L/kg. Besides, in series [2] (oral gavage, 5mg/kg), the AUC(0-t) is 4410 ng·h/mL, the concentration peaked (Cmax) at 386 ng/mL, the time to peak (Tmax) was 4.3 h and the half-life was 3.15 h. The compound also displayed a bioavailability in series [2] (oral gavage, 5mg/kg) of 38.9%.
